ChEMBL document CHEMBL4196227, “Potential of PDE10A Inhibitors as Treatment for Schizophrenia and Other Neurological Disorders” (ACS Med Chem Lett, 2018)

Tests used:
[1] = Clearance in human liver microsomes at 0.5 uM preincubated for 5 mins followed by NADPH addition measured after 30 mins by MSMS analysis; type: ADME, microsome; conditions: read-out: CLH
[2] = molecular target: cAMP and cAMP-inhibited cGMP 3',5'-cyclic phosphodiesterase 10A (Homo sapiens, UniProt Q9Y233); assay: Inhibition of recombinant PDE10A (unknown origin) using cAMP/cGMP as substrate incubated for 60 mins by HTRF assay
Chain of cAMP and cAMP-inhibited cGMP 3',5'-cyclic phosphodiesterase 10A (Q9Y233 whole entry): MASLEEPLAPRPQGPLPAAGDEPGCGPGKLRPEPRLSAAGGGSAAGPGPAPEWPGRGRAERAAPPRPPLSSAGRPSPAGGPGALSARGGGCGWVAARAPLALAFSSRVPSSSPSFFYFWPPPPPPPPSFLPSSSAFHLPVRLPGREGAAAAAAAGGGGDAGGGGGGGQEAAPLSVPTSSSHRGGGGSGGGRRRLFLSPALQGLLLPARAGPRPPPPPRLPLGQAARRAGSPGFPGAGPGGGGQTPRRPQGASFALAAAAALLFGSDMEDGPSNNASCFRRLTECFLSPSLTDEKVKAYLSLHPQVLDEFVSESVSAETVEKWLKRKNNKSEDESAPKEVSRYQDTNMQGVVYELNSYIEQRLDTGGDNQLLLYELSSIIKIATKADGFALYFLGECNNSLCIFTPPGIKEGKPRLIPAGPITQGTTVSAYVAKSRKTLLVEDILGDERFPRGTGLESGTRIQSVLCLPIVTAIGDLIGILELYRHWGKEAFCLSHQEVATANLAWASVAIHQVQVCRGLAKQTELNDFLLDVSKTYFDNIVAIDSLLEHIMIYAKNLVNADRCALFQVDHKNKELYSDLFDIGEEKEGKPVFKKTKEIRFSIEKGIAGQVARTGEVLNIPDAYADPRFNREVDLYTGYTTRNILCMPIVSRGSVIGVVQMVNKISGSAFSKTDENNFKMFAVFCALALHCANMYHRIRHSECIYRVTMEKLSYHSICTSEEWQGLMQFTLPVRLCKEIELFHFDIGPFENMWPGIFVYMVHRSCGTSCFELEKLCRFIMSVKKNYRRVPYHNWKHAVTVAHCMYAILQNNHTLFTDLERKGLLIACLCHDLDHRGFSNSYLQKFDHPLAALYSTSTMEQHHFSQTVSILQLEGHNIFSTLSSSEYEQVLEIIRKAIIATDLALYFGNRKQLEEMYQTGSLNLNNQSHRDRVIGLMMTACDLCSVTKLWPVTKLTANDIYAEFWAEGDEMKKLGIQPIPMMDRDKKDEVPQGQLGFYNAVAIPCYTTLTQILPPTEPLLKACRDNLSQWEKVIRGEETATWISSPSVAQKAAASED

[3] = Clearance in rat liver microsomes at 0.5 uM preincubated for 5 mins followed by NADPH addition measured after 30 mins by MSMS analysis; type: ADME, microsome; conditions: read-out: CLH

microsomal CLint at 0.5 µM [1] [µL/min/mg]	IC50 [2] [nM]	microsomal CLint at 0.5 µM [3] [µL/min/mg]	SMILES
< 100	< 100	< 100	Cn1cc(-c2ccncc2)c(-c2ccc(C#Cc3ccccn3)cc2)n1
< 100	200 to 500	< 100	Cc1cccc(C#Cc2ccc(-c3nn(C)cc3-c3cn[nH]c3)cc2)n1
< 100	< 100	< 100	Cn1cc(-c2ccncc2)c(-c2ccc(C#Cc3nccn3C)cc2)n1
< 100	< 100	< 100	Cn1cc(-c2ccncc2)c(-c2ccc(C#Cc3ccc4ccccc4n3)cc2)n1
< 100	< 100	100 to 200	COc1cc(-c2nn(C)cc2-c2ccncc2)ccc1C#Cc1cccc(C)n1
< 100	100 to 200	< 100	Cn1cc(-c2ccncc2)c(-c2ccc(C#Cc3nccs3)cc2)n1
